# According to US10064865B2, “Composition comprising phosphodiesterase type 5 inhibitor for inhibiting apoptosis of nerve cells” (ARIBIO INC., priority 2012, dated 2018):
# Tests used:
# [1] = tested on: neuron apoptosis-operated rats, ipsilateral cerebral cortex; assay: Example 2 (timing of administration) histopathology: cerebral atrophy and degenerative neurons; type: in vivo, Sprague-Dawley (SD) rats; details: for Cerebral atrophic % / Numbers of neurons: Degenerative cells: 1 mg/kg s.c. once a day for 14 days, 29 days after neuron apoptosis
# Description: Total one hundred healthy male Sprague-Dawley (SD) rats (6-wk old upon receipt; Japan; Body weight ranged in 170-190 g upon receipt) were used after acclimatization for 16 days. Animals were allocated four per polycarbonate cage in a temperature (20-25° C.) and humidity (50-55%) controlled room. Light:dark cycle was 12 hr:12 hr, and standard rodent chow (Samyang, Korea) and water were supplied free to access. All animals were treated in accordance with the Guidelines for Care and Use of Laboratory Animals of Daegu Haany University based on the Guide for the Care and Use of Laboratory Animals by Institute of Laboratory Animal Resources, Commission on Life Science, National Research Council, USA on 1996, Washington D.C. Experimental groups are as follows:
# The mirodenafil (mirodenafil 2HCl; SK Chemical Life Science Business, KR) was used in this experiment. […] Mirodenafil was stored at 4° C. in a refrigerator to protect from light and humidity until used. Mirodenafil were directly dissolved in saline as 1 mg/ml concentrations, and subcutaneously administered in a volume of 1 ml/kg on the dorsal back skins from 24, 72 and 168 hrs after neuron apoptosis, once a day for 14 days, respectively. In saline and neuron apoptosis control rats, equal volumes of saline as vehicle were administered, instead of mirodenafil from 24 hrs after neuron apoptosis for 20 days, respectively.
# The induction of neuron apoptosis was carried out by damaging the right hemisphere of the brain of animals. Specifically, animals were anesthetized with 2 or 3% isoflurane in the mixture of 70% N2O and 28.5% O2, and were maintained with 1 to 1.5% isoflurane in the mixture of 70% N2O and 28.5% O2. After that the temporalis muscle was bisected and reflected through an incision made midway between the eye and the eardrum canal. The proximal MCA was exposed through a subtemporal craniectomy by microdental drills without removing the zygomatic arch and without transecting the facial nerve. […] Mortality was less than 5%. For sham control, all procedures were performed in the same way, with the exception of the occlusion of the MCA.
# At 29 days after neuron apoptosis, rats were sacrificed under deep anesthesia with 3% isoflurane inhalation. Brains were removed, washed in chilled phosphate buffered saline (PBS, pH7.4), and dissected into 6 coronal sections (2 mm thickness) ranging from 2 to 14 mm from the frontal brain pole on the rat brain stainless steel coronal matrix (Harvard, USA). Prepared last 6th cerebral parts were directly fixed in 10% neural buffered formalin. Then, embedded in paraffin, cross-sectioned, and stained with hematoxylin and eosin (H&E) for observing general histopathology of cerebral cortex. […] The histopathologist was blindes to group distribution when this analysis was made.
# Histomorphometry: The atrophic % of ipsilateral cerebral cortex was calculated as following Equation 4 as compared with intact contralateral hemisphere in prepared peri-infarct/defect histological specimens. In addition, the numbers of degenerative neurons were also measured in the restricted view fields of cerebral cortex, mm2, respectively. Cerebral atrophy formation=(Contralateral cerebral cortex area−ipsilateral cerebral cortex area)/Contralateral cerebral cortex area×100(%) [EQUATION 4]
# All data were expressed as mean±standard deviation (S.D.) of ten rats. Multiple comparison tests for different dose groups were conducted. Variance homogeneity was examined using the Levene test (Levene A, Clin Otalary, 1981; 6:145-51). […] Statistical analyses were conducted using SPSS for Windows (Release 14K, SPSS Inc., USA; Ludbrook, Clin Exp Pharmacol Physiol, 1997; 24:294-6). In addition, the percent changes as compared with neuron apoptosis control and mirodenafil treated rats were calculated to help the understanding of the efficacy of test substances as follow Equation 6 and 7. […]
# [2] = tested on: neuron apoptosis-operated rats; assay: Example 2 forelimb placing test; type: in vivo, Sprague-Dawley (SD) rats
# Description: Sensorimotor function was evaluated by use of limb placing (de Ryck M et al., Stroke. 20:1383-90(1989)) and body swing (Borlongan and Sanberg, J Neurosci. 15:5372-8(1995)) tests. These tests were performed at 1 and 28 days after neuron apoptosis. The investigator performing the surgery and behavioral assessments was blinded to treatment assignment.
# Limb placing test: Forelimb and hindlimb placement were assessed independently. For the forelimb placing test, the rats were held by their torso with their forepaws hanging free and moved slowly toward the edge of a tabletop, stopping short of touching the vibrissae (for vision-induced placing), touching the vibrissae (for vibrissae-induced placing), making light contact with the front of the forepaw to the edge of the tabletop (for tactile-induced placing), and pressing the forepaws to the edge of the table with increased pressure (for proprioceptive-induced placing). Hindlimb placing was conducted in the same manner as above but with tactile and proprioceptive stimulation applied to the front/top of each hindlimb. Each limb for placing in response to visual, vibrissae, tactile, and proprioceptive stimulation are scored in the following manner: normal performance=0 points; performance with unilateral limb=1 point; performance with a delay (2 seconds) and/or incomplete=2 point; no performance=3 points. A total of 12 points in forelimb placing test and 6 points in hindlimb placing test means maximal neurological deficit, and 0 points means normal performance.
# All data were expressed as mean±standard deviation (S.D.) of ten rats. Multiple comparison tests for different dose groups were conducted. Variance homogeneity was examined using the Levene test (Levene A, Clin Otalary, 1981; 6:145-51). […] In addition, the percent changes as compared with neuron apoptosis control and mirodenafil treated rats were calculated to help the understanding of the efficacy of test substances as follow Equation 6 and 7. […]
# [3] = 1 mg/kg from 24 hrs after surgery
# [4] = 1 mg/kg from 72 hrs after surgery
# [5] = 1 mg/kg from 168 hrs after surgery
smiles,measurement,setting,value
"CCCOc1ccc(S(=O)(=O)N2CCN(CCO)CC2)cc1-c1nc2c(CCC)cn(CC)c2c(=O)[nH]1 [Mirodenafil, mirodenafil]","ipsilateral cerebral atrophic % at 29 days, change as compared with neuron apoptosis control",[1]; [3],−60.71%
same,"numbers of degenerative neurons at sacrifice, change as compared with neuron apoptosis control",[1]; [3],−70.64%
same,"ipsilateral cerebral atrophic % at 29 days, change as compared with neuron apoptosis control",[1]; [4],−26.37%
same,"numbers of degenerative neurons at sacrifice, change as compared with neuron apoptosis control",[1]; [4],−45.90%
same,"ipsilateral cerebral atrophic % at 29 days, change as compared with neuron apoptosis control",[1]; [5],−12.31%
same,"numbers of degenerative neurons at sacrifice, change as compared with neuron apoptosis control",[1]; [5],−15.40%
same,Cerebral atrophic %,[1]; start 24 hrs after operation,21.90 ± 3.13^ab %
same,Numbers of neurons: Degenerative cells,[1]; start 24 hrs after operation,22.80 ± 3.69^ab cells/mm^2 of cerebral cortex
same,Cerebral atrophic %,[1]; start 72 hrs after operation,41.03 ± 5.05^ab %
same,Numbers of neurons: Degenerative cells,[1]; start 72 hrs after operation,42.01 ± 6.14^ab cells/mm^2 of cerebral cortex
same,Cerebral atrophic %,[1]; start 168 hrs after operation,48.87 ± 3.25^ac %
same,Numbers of neurons: Degenerative cells,[1]; start 168 hrs after operation,65.70 ± 7.64^ac cells/mm^2 of cerebral cortex
same,"forelimb placing test scores at 28 days, change as compared with neuron apoptosis control",[2]; [3],−57.41%
same,"forelimb placing test scores at 28 days, change as compared with neuron apoptosis control",[2]; [4],−29.63%
same,"forelimb placing test scores at 28 days, change as compared with neuron apoptosis control",[2]; [5],−11.11%
